Consider 1 compound from ChEMBL document CHEMBL1151668, “Molecular structure of terrecyclodiol: a derivative of the antifungal metabolite terrecyclic acid A from Aspergillus terreus” (1996).

Calls of active or inactive are those of the source. The calls are words filed in the database; no cut-off is given here.

The subject of test [1] is P388. In words: Antitumor activity against mouse P388 cells. Type of test: functional.
Test [2] concerns Phytophthora cinnamomi. Kind of test: Growth inhibition of Phytophthora cinnamomi. In kind it is functional, organism-based.

`C=C1C(=O)C[C@@H]2[C@@H]3CC[C@@H](C(=O)O)[C@@]12CC3(C)C` [TERRECYCLIC ACID A]: the Activity in test [1] was less than 0.5 µg/mL. For the same compound, the result in test [2] was Active.
